Reference: patent publication US20250163064A1, “QUINAZOLINE COMPOUNDS AND USES THEREOF AS INHIBITORS OF MUTANT KRAS PROTEINS” (AMGEN INC., priority 2022, published 2025)
Where two headings read alike, the source gives them in different places.

Experiments:
[1] = system: Phosphorylation of ERK1/2 in AsPC-1 cells; test: Phospho-ERK1/2 MSD Assay; format: cell-based
Experimental: AsPC-1 (ATCC® CRL-1682TM) cells were cultured in RPMI 1640 Medium (ThermoFisher Scientific 11875093) containing 10% fetal bovine serum (ThermoFisher Scientific 16000044) and 1× penicillin-streptomycin-glutamine (ThermoFisher Scientific 10378016). Sixteen hours prior to compound treatment, AsPC-1 cells were seeded in 96-well cell culture plates at a density of 25,000 cells/well and incubated at 37° C., 5% CO2. A compound dose-response titration was diluted in growth media, added to appropriate wells of a cell culture plate, and then incubated at 37° C., 5% CO2 for 2 hours. Following compound treatment, cells were washed with ice-cold Dulbecco's phosphate-buffered saline, no Ca^2+ or Mg^2+ (ThermoFisher Scientific 14190144), and then lysed in RIPA buffer (50 mM Tris-HCl pH 7.5, 1% Igepal, 0.5% sodium deoxycholate, 150 mM NaCl, and 0.5% sodium dodecyl sulfate) containing protease inhibitors (Roche 4693132001) and phosphatase inhibitors (Roche 4906837001). Phosphorylation of ERK1/2 in compound-treated lysates was assayed using Phospho-ERK1/2 Whole Cell Lysate kits (Meso Scale Discovery K151DWD) according to the manufacturer's protocol. Assay plates were read on a Meso Scale Discovery Sector Imager 6000, and data were analyzed using a 4-parameter logistic model to calculate IC50 values.

[2] = molecular target: His-tagged KRAS G12D protein (Homo sapiens (Human), UniProt P01116, G12D); test: KRAS G12D TR-FRET Assay; format: binding; details: biotinylated KRPep-2d, 10 μM GDP
Experimental: Compounds of interest were prepared in a dose-response titration in DMSO, and 80 nL were added via Labcyte Echo to each well of a 384-well plate (Perkin Elmer 6008280). The His-tagged KRAS G12D protein (Amgen) was diluted to 20 nM in Assay Buffer (20 mM HEPES, pH 7.4, 10 mM MgCl2, 50 mM NaCl, 0.1% BSA, 0.01% Tween-20, 10 μM GDP) and 2 μL was added to the appropriate wells of the 384-well plate. The plate was incubated for 30 minutes at rt. Biotinylated KRPep-2d substrate (Amgen) was diluted to […] in Assay Buffer and 2 AL was added to all wells and incubated for 1 hour at room temperature. Detection Reagent (0.4 nM LANCE Eu-W1024 Anti-6×His (Perkin Elmer AD0401), 5 nM streptavidin-d2 (Cisbio 610SADLA)) was prepared in Assay Buffer, then 4 AL was added to the plate and incubated for 1 h at rt. Plates were read using PerkinElmer En Vision (ex: 320 nm, em1: 665 nm, em2: 615 nm) and em1/em2 data was used to generate curve fits using a 4-parameter logistic model to calculate IC50 values.

[3] = molecular target: GDP-bound KRAS protein (aa 1-169), G12D and C118A; SOS-mediated nucleotide exchange (Homo sapiens (Human), UniProt P01116, C118A/G12D); test: KRAS G12D Coupled Nucleotide Exchange Assay; format: biochemical; details: 2 h compound pre-incubation, GTP, cRAF AlphaScreen
Experimental: Purified GDP-bound KRAS protein (aa 1-169), containing both G12D and C118A amino acid substitutions and an N-terminal His-tag, was pre-incubated in assay buffer (25 mM HEPES pH 7.4, 10 mM MgCl2, and 0.01% Triton X-100) with a compound dose-response titration for 2 h. Following compound pre-incubation, purified SOS protein (aa 564-1049) and GTP (Roche 10106399001) were added to the assay wells and incubated for an additional 30 min. […] The assay plates were then read on a PerkinElmer En Vision Multilabel Reader, using AlphaScreen® technology, and data were analyzed using a 4-parameter logistic model to calculate IC50 values.

[4] = read-out: 2 h p-ERK (AsPC-1 cells), IC50, AsPC-1 cells, 2 h compound treatment
[5] = Homo sapiens, ASPC1, 2 h, read-out: 2 h p-ERK (AsPC-1 cells), IC50 (μM), AsPC-1 cells, 2 h compound treatment

Sequence of GDP-bound KRAS protein (aa 1-169), G12D and C118A; SOS-mediated nucleotide exchange (P01116 other isoform, or with tags, fused parts or gaps G12D/C118A): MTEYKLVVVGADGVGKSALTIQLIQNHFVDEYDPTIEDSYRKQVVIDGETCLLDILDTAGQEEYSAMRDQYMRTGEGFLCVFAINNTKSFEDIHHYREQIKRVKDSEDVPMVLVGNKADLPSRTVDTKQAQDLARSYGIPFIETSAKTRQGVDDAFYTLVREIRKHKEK
Sequence of His-tagged KRAS G12D protein (P01116-2 other isoform, or with tags, fused parts or gaps G12D): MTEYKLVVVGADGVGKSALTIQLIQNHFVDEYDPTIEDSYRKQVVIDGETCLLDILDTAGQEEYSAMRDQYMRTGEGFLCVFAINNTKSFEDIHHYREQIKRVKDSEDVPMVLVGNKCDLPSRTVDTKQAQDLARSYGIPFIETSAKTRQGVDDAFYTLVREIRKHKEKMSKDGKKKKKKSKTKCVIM

Row | IC50 [1, 4] [µM] | IC50 [2] [nM] | IC50 [3] [nM] | IC50 [1, 5] [µM] | Compound
1 | 0.013 | 2 | 2 |  | CC1(O)COCCN(c2nc(OC[C@@]34CCCN3C[C@H](F)C4)nc3c(F)c(-c4ccc(F)c5sc(N)c(C#N)c45)c(Cl)cc23)C1 (single isomer, unassigned) [Example 22]
2 | 0.185 | 3 | 2 |  | CC1(O)COCCN(c2nc(OC[C@@]34CCCN3C[C@H](F)C4)nc3c(F)c(-c4ccc(F)c5sc(N)c(C#N)c45)c(Cl)cc23)C1 (single isomer, unassigned) [Example 24]
3 |  | 3 | 5 | 0.097 | CC1(O)CCCCN(c2nc(OC[C@@]34CCCN3C[C@H](F)C4)nc3c(F)c(-c4ccc(F)c5sc(N)c(C#N)c45)c(Cl)cc23)C1 (single isomer, unassigned) [Example 28]
4 | 0.032 | 2 | 3 |  | CCC1(O)COCCN(c2nc(OC[C@@]34CCCN3C[C@H](F)C4)nc3c(F)c(-c4ccc(F)c5sc(N)c(C#N)c45)c(Cl)cc23)C1 (single isomer, unassigned) [Example 44]
5 | 0.185 | 6 | 5 |  | CCC1(O)COCCN(c2nc(OC[C@@]34CCCN3C[C@H](F)C4)nc3c(F)c(-c4ccc(F)c5sc(N)c(C#N)c45)c(Cl)cc23)C1 (single isomer, unassigned) [Example 45]
6 |  | 6 | 3 | 0.148 | N#Cc1c(N)sc2c(F)ccc(-c3c(Cl)cc4c(N5CCOCC(O)(C(F)F)C5)nc(OC[C@@]56CCCN5C[C@H](F)C6)nc4c3F)c12 (single isomer, unassigned) [Example 46]
7 |  | 3 | 1 | 0.078 | N#Cc1c(N)sc2c(F)ccc(-c3c(Cl)cc4c(N5CCOCC(F)C5)nc(OC[C@@]56CCCN5C[C@H](F)C6)nc4c3F)c12 (single isomer, unassigned) [Example 58]
8 | 0.062 | 5 | 2 |  | N#Cc1c(N)sc2c(F)ccc(-c3c(Cl)cc4c(N5CCOCC(F)C5)nc(OC[C@@]56CCCN5C[C@H](F)C6)nc4c3F)c12 (single isomer, unassigned) [Example 59]
9 |  | 8 | 7 | 0.292 | CC1(O)COCCN(c2nc(OCC34CCCN3CC(F)(F)C4)nc3c(F)c(-c4ccc(F)c5sc(N)c(C#N)c45)c(Cl)cc23)C1 (single isomer, unassigned) [Example 60, 2-Amino-4-(6-chloro-2-((2,2-difluorotetrahydro-1H-pyrrolizin-7a(5H)-yl)methoxy)-8-fluoro-4-(6-hydroxy-6-methyl-1,4-oxazepan-4-yl)quinazolin-7-yl)-7-fluorobenzo[b] thiophene-3-carbonitrile]
10 |  | 3 | 4 | 0.097 | N#Cc1c(N)sc2c(F)ccc(-c3c(Cl)cc4c(N5CCCC[C@H](O)C5)nc(OC[C@@]56CCCN5C[C@H](F)C6)nc4c3F)c12 [Example 5, 2-Amino-4-(6-chloro-8-fluoro-2-(((2R,7a.S)-2-fluorotetrahydro-1H-pyrrolizin-7a(5H)-yl)methoxy)-4-((S)-3-hydroxyazepan-1-yl)quinazolin-7-yl)-7-fluorobenzo[b] thiophene-3-carbonitrile]
11 |  | 7 | 7 | 0.677 | CC1(C(N)=O)CCCN(c2nc(OC[C@@]34CCCN3C[C@H](F)C4)nc3c(F)c(-c4ccc(F)c5sc(N)c(C#N)c45)c(Cl)cc23)C1 (stereo partly drawn) [Example 11, 1-(7-(2-Amino-3-cyano-7-fluorobenzo[b]thiophen-4-yl)-6-chloro-8-fluoro-2-(((2R,7aS)-2-fluorotetrahydro-1H-pyrrolizin1 7a(5H)-yl)methoxy)quinazolin-4-yl)-3-methylpiperidine-3-carboxamide]
12 |  | 6 | 6 | 1.81 | N#Cc1c(N)sc2c(F)ccc(-c3c(Cl)cc4c(N5CCC[C@@H](S(N)(=O)=O)C5)nc(OC[C@@]56CCCN5C[C@H](F)C6)nc4c3F)c12 [Example 12, (3R)-1-(7-(2-Amino-3-cyano-7-fluorobenzo[b]thiophen-4-yl)-6-chloro-8-fluoro-2-(((2R,7aS)-2-fluorotetrahydro-1H-pyrrolizin-7a(5H)-yl)methoxy)quinazolin-4-yl)piperidine-3-sulfonamide]
13 |  | 5 | 5 | 2.21 | N#Cc1c(N)sc2c(F)ccc(-c3c(Cl)cc4c(N5CCCC6(CC(=O)N6)C5)nc(OC[C@@]56CCCN5C[C@H](F)C6)nc4c3F)c12 (stereo partly drawn) [Example 13, 2-Amino-4-(6-chloro-8-fluoro-2-(((2R,7aS)-2-fluorotetrahydro-1H-pyrrolizin1 7a(5H)-yl)methoxy)-4-(2-oxo-1,6-diazaspiro[3.5]nonan-6-yl)quinazolin-7-yl)-7-fluorobenzo[b] thiophene-3-carbonitrile]
14 |  | 4 | 4 | 0.729 | CS(=O)(=O)N1CC2(CCCN(c3nc(OC[C@@]45CCCN4C[C@H](F)C5)nc4c(F)c(-c5ccc(F)c6sc(N)c(C#N)c56)c(Cl)cc34)C2)C1 [Example 14]
15 |  | 3 | 4 | 0.296 | N#Cc1c(N)sc2c(F)ccc(-c3c(Cl)cc4c(N5CCCCC(S(N)(=O)=O)C5)nc(OC[C@@]56CCCN5C[C@H](F)C6)nc4c3F)c12 (stereo partly drawn) [Example 15, 1-(7-(2-Amino-3-cyano-7-fluorobenzo[b]thiophen-4-yl)-6-chloro-8-fluoro-2-(((2R,7aS)-2-fluorotetrahydro-1H-pyrrolizin-7a(5H)-yl)methoxy)quinazolin-4-yl)azepane-3-sulfonamide]
16 |  | 2 | 3 | 0.076 | N#Cc1c(N)sc2c(F)ccc(-c3c(Cl)cc4c(N5CCCC(=O)CC5)nc(OC[C@@]56CCCN5C[C@H](F)C6)nc4c3F)c12 [Example 16, 2-Amino-4-(6-chloro-8-fluoro-2-(((2R,7a.S)-2-fluorotetrahydro-1H-pyrrolizin-7a(5H)-yl)methoxy)-4-(4-oxoazepan-1-yl)quinazolin-7-yl)-7-fluorobenzo[b] thiophene-3-carbonitrile]
17 |  | 22 | 26 | 1.02 | N#Cc1c(N)sc2c(F)ccc(-c3c(Cl)cc4c(N5CCCC6(CCO6)C5)nc(OC[C@@]56CCCN5C[C@H](F)C6)nc4c3F)c12 (stereo partly drawn) [Example 20, 2-Amino-4-(6-chloro-8-fluoro-2-(((2R,7aS)-2-fluorotetrahydro-1H-pyrrolizin-7a(5H)-yl)methoxy)-4-(1-oxa-6-azaspiro[3.5]nonan-6-yl)quinazolin-7-yl)-7-fluorobenzo[b] thiophene-3-carbonitrile]
18 |  | 10 | 8 | 0.532 | N#Cc1c(N)sc2c(F)ccc(-c3c(Cl)cc4c(N5CCC6CCC(C5)O6)nc(OC[C@@]56CCCN5C[C@H](F)C6)nc4c3F)c12 (stereo partly drawn) [Example 21]
19 |  | 3 | 3 | 0.492 | N#Cc1c(N)sc2c(F)ccc(-c3c(Cl)cc4c(N5CCCS(=O)(=O)CC5)nc(OC[C@@]56CCCN5C[C@H](F)C6)nc4c3F)c12 [Example 25, 2-Amino-4-(6-chloro-4-(1,1-dioxido-1,4-thiazepan-4-yl)-8-fluoro-2-(((2R,7aS)-2-fluorotetrahydro-1H-pyrrolizin-7a(5H)-yl)methoxy)quinazolin-7-yl)-7-fluorobenzo[b] thiophene-3-carbonitrile]
